# From patent US4416877A, “Anti-atherosclerotic pharmaceutical compositions containing diphosphonate compounds” (priority 1979, dated 1983)
# Where two headings read alike, the source gives them in different places.
# Experiments:
# [1] = system: blood pressure; experiment: Cardiovascular changes (blood pressure, heart rate) produced by one dose in a Cynomolgus monkey; format: in vivo; conditions: for Blood pressure / Heart Rate: 250 mg/kg p.o.
# [2] = system: liver cholesterol; experiment: Liver cholesterol clearing activity in cholesterol pre-fed rabbits; format: in vivo; conditions: 4 months; for Liver Cholesterol / Liver Cholesterol Free/Ester Ratio / Liver Phospholipids / Liver Total Lipids / Liver/Body Weight % Change: n = 5
# [3] = system: lipoprotein cholesterol; experiment: Lipoprotein changes in normal Cynomolgus monkeys treated during 60 days; format: in vivo; conditions: for Total Cholesterol / alpha Cholesterol / alpha/beta Cholesterol Ratio / beta Cholesterol: n = 7
# Method: To further test the long term efficacity of compound 16, normal male and female Cynomolgus monkeys were treated during 60 days (Table XIII).
# Dose: 25 mg/kg/day for 45 days 50 mg/kg/day for last 15 days
# [4] = system: plasma lipoproteins; experiment: Plasma lipoproteins in Cynomolgus monkeys fed simultaneously a high cholesterol diet during 60 days; format: in vivo; conditions: for HDL Chol. / α/β Chol. ratio: n = 7
# Method: | Dose: 25 mg d.i.d. per day
# [5] = system: aorta cholesterol; experiment: Aorta cholesterol clearing activity in cholesterol pre-fed rabbits; format: in vivo; conditions: 4 months; for Aortic Cholesterol Free/Ester Ratio / Aortic Cholesterol, Arch / Aortic Cholesterol, Thoracic / Aortic Cholesterol, Total / Aortic Phospholipids, Arch / Aortic Phospholipids, Thoracic / Aortic Phospholipids, Total: n = 5
# [6] = system: lipid metabolism; experiment: Effects of diphosphonates on lipid metabolism in normal rats (serum lipids, α/β cholesterol); format: in vivo, male Wistar rats; conditions: for change in vivo at 200 mg/kg/day: Rattus norvegicus, po, normal rats (N), 200 mg/kg/day p.o.
# In short: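 Normal male Wistar rats (~200 g, 4–5/group) dosed orally with diphosphonates 200 mg/kg/day for 4–21 days, in 24 mM bicarbonate buffer or corn oil. Serum taken after overnight fast; free fatty acids, triglycerides, phospholipids and heparin/CaCl2-precipitated β-lipoprotein cholesterol measured. Values given as % of control; <15% difference deemed non-significant.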
# [7] = system: lipoprotein cholesterol; experiment: Lipoprotein cholesterol changes in normal rats treated for 90 days; format: in vivo, male and female rats
# Method: Treating male and female rats with 40, 400 and 800 mg/kg of compound 16 per day for 90 days produced a sustained dose response augmentation in serum high density lipoprotein cholesterol (HDL-C or α-cholesterol) as high as 220% above controls at high dose level (Table VI).
# *Plasma was pooled from 5 animals of each group and analyzed.
# [8] = system: lipoproteins; experiment: Effect on lipoproteins from 5 treated human patients; format: in vivo; conditions: for HDL2 Cholesterol / HDL2 Free/Total Cholesterol ratio / HDL3 Cholesterol / HDL3 Free/Total Cholesterol ratio / LDL Cholesterol / LDL Free/Total Cholesterol ratio / VLDL Cholesterol / VLDL Free/Total Cholesterol ratio: n = 5; for HDL2 Free/Total Cholesterol ratio, % change / HDL3 Cholesterol, % change / HDL3 Free/Total Cholesterol ratio, % change / VLDL Free/Total Cholesterol ratio, % change: vs pre-test
# Method: Five human patients were treated over several days with either 5 mg/kg or 10 mg/kg of compound 16 (Table XV). […] It is generally recognized that an increase in free cholesterol ratio is indicative of an increased clearing or turnover of the lipoprotein cholesterol (Schwartz, C. C. Biochem. Biophys. Acta 663:143-162, 1981).
# [9] = 60 days, 50 mg/kg/day for last 15 days
# [10] = 30 days on high cholesterol diet
# [11] = 60 days on high cholesterol diet
smiles,measurement,setting,value
"COP(=O)(OC)OC(c1ccc(Cl)cc1)P(=O)(OC)OC (stereo not drawn) [Compound 16, Dimethyl α(dimethoxyphosphinyl) p-chlorobenzyl phosphate]",decrease of blood pressure,"[1]; 250 mg/kg oral, six hours period",at least 40%
same,Blood pressure,[1]; +1h,65 mmHg
same,Heart Rate,[1]; +1h,195 beat/min.
same,Blood pressure,[1]; +2h,70 mmHg
same,Blood pressure,[1]; +3h,100 mmHg
same,Heart Rate,[1]; +3h,195 beat/min.
same,Blood pressure,[1]; +5h,95 mmHg
same,Heart Rate,[1]; +5h,210 beat/min.
same,Blood pressure,[1]; +6h,105 mmHg
same,Heart Rate,[1]; +6h,210 beat/min.
same,Liver Cholesterol,[2]; 100 mg/kg/day,3.1 ± 1.2 mg/g
same,Liver Cholesterol Free/Ester Ratio,[2]; 100 mg/kg/day,2.23 ± 0.27
same,Liver Phospholipids,[2]; 100 mg/kg/day,20.7 ± 2.7 mg/g
same,Liver Total Lipids,[2]; 100 mg/kg/day,20.5 ± 3.4 mg/g
same,Liver/Body Weight % Change,[2]; 100 mg/kg/day,+8%
same,Liver Cholesterol,[2]; 200 mg/kg/day,3.9 ± 1.4 mg/g
same,Liver Cholesterol Free/Ester Ratio,[2]; 200 mg/kg/day,2.24 ± 0.46
same,Liver Phospholipids,[2]; 200 mg/kg/day,26.3 ± 3.1 mg/g
same,Liver Total Lipids,[2]; 200 mg/kg/day,25.9 ± 2.9 mg/g
same,Liver/Body Weight % Change,[2]; 200 mg/kg/day,+12%
same,"pre-established cholesterol deposits, liver",[2]; cholesterol pre-fed rabbits,effectively decreased the pre-established cholesterol deposits
same,Total Cholesterol,"[3]; 45 days, 25 mg/kg/day",99 ± 8 mg/100 ml
same,alpha Cholesterol,"[3]; 45 days, 25 mg/kg/day",54 ± 5 mg/100 ml
same,alpha/beta Cholesterol Ratio,"[3]; 45 days, 25 mg/kg/day",1.17
same,beta Cholesterol,"[3]; 45 days, 25 mg/kg/day",46 ± 4 mg/100 ml
same,Total Cholesterol,[3]; [9],85 ± 7 mg/100 ml
same,alpha Cholesterol,[3]; [9],46 ± 4 mg/100 ml
same,alpha/beta Cholesterol Ratio,[3]; [9],1.09
same,beta Cholesterol,[3]; [9],41 ± 5 mg/100 ml
same,HDL (α-cholesterol) and α/β ratio,[3]; normal monkeys,augmentation in HDL (α-cholesterol) and a significant increase in α/β ratio
same,blood urea levels,"[3]; normal monkeys, treated vs controls",significantly lower
same,HDL Chol.,[4]; [10],49 ± 4 mg/100 ml
same,α/β Chol. ratio,[4]; [10],0.22 ± 0.05
same,HDL Chol.,[4]; [11],39 ± 6 mg/100 ml
same,α/β Chol. ratio,[4]; [11],0.22 ± 0.05
same,HDL-C values and α/β ratios,"[4]; simultaneous cholesterol feeding, 60 days",increase HDL-C values and the α/β ratios
same,Aortic Cholesterol Free/Ester Ratio,[5]; 100 mg/kg/day,0.5 ± 0.1
same,"Aortic Cholesterol, Arch",[5]; 100 mg/kg/day,17.9 ± 2.9 mg/g
same,"Aortic Cholesterol, Thoracic",[5]; 100 mg/kg/day,10.6 ± 2.8 mg/g
same,"Aortic Cholesterol, Total",[5]; 100 mg/kg/day,20.8 ± 6.5 mg/Aorta
same,"Aortic Phospholipids, Arch",[5]; 100 mg/kg/day,4.6 ± 1.4 mg/g
same,"Aortic Phospholipids, Thoracic",[5]; 100 mg/kg/day,4.5 ± 1.5 mg/g
same,"Aortic Phospholipids, Total",[5]; 100 mg/kg/day,6.5 ± 1.6 mg/Aorta
same,Aortic Cholesterol Free/Ester Ratio,[5]; 200 mg/kg/day,0.4 ± 0.1
same,"Aortic Cholesterol, Arch",[5]; 200 mg/kg/day,22.8 ± 3.4 mg/g
same,"Aortic Cholesterol, Thoracic",[5]; 200 mg/kg/day,11.0 ± 4.2 mg/g
same,"Aortic Cholesterol, Total",[5]; 200 mg/kg/day,18.3 ± 6.7 mg/Aorta
same,"Aortic Phospholipids, Arch",[5]; 200 mg/kg/day,5.9 ± 1.3 mg/g
same,"Aortic Phospholipids, Thoracic",[5]; 200 mg/kg/day,4.9 ± 1.9 mg/g
same,"Aortic Phospholipids, Total",[5]; 200 mg/kg/day,7.9 ± 1.8 mg/Aorta
same,"pre-established cholesterol deposits, aorta",[5]; cholesterol pre-fed rabbits,effectively decreased the pre-established cholesterol deposits
same,change in vivo at 200 mg/kg/day,[6]; read-out: Serum Chol. α/β (% control values),121%
same,change in vivo at 200 mg/kg/day,[6]; read-out: Serum Free Fatty Acids (% control values),-50%
same,change in vivo at 200 mg/kg/day,[6]; read-out: Serum Phospholipids (% control values),26%
same,change in vivo at 200 mg/kg/day,[6]; read-out: Serum Triglycerides (% control values),< 15%
same,"increased HDL lipids, especially HDL cholesterol",[6]; normal rats,observed most dramatically
same,increase in serum phospholipid,[6]; rats,found to increase
same,α-cholesterol/β-cholesterol ratio / lipoprotein cholesterol,[6]; rats,highly significant activity
same,α-chol,"[7]; 40 mg/kg, female",54 mg/dL
same,α/β ratio,"[7]; 40 mg/kg, female",6.0
same,β-chol,"[7]; 40 mg/kg, female",9.0 mg/dL
same,α-chol,"[7]; 40 mg/kg, male",63 mg/dL
same,α/β ratio,"[7]; 40 mg/kg, male",7.6
same,β-chol,"[7]; 40 mg/kg, male",8.3 mg/dL
same,α-chol,"[7]; 400 mg/kg, female",68 mg/dL
same,α/β ratio,"[7]; 400 mg/kg, female",11.5
same,β-chol,"[7]; 400 mg/kg, female",5.9 mg/dL
same,α-chol,"[7]; 400 mg/kg, male",78 mg/dL
same,α/β ratio,"[7]; 400 mg/kg, male",11.5
same,β-chol,"[7]; 400 mg/kg, male",7.6 mg/dL
same,α-chol,"[7]; 800 mg/kg, female",117 mg/dL
same,α/β ratio,"[7]; 800 mg/kg, female",11.3
same,β-chol,"[7]; 800 mg/kg, female",10.3 mg/dL
same,α-chol,"[7]; 800 mg/kg, male",128 mg/dL
same,α/β ratio,"[7]; 800 mg/kg, male",10.7
same,β-chol,"[7]; 800 mg/kg, male",11.9 mg/dL
same,augmentation in serum HDL-C (α-cholesterol) above controls,[7]; high dose level (800 mg/kg),≤ 220%
same,HDL2 Cholesterol,[8]; 5 mg/kg,0.82 ± 0.13 mmol/L
same,HDL2 Free/Total Cholesterol ratio,[8]; 5 mg/kg,0.231 ± 0.027
same,HDL3 Cholesterol,[8]; 5 mg/kg,0.72 ± 0.09 mmol/L
same,HDL3 Free/Total Cholesterol ratio,[8]; 5 mg/kg,0.242 ± 0.018
same,LDL Cholesterol,[8]; 5 mg/kg,3.05 ± 0.26 mmol/L
same,LDL Free/Total Cholesterol ratio,[8]; 5 mg/kg,0.304 ± 0.005
same,VLDL Cholesterol,[8]; 5 mg/kg,0.20 ± 0.03 mmol/L
same,VLDL Free/Total Cholesterol ratio,[8]; 5 mg/kg,0.472 ± 0.019
same,"HDL2 Free/Total Cholesterol ratio, % change",[8]; 5 mg/kg,+24%
same,"HDL3 Cholesterol, % change",[8]; 5 mg/kg,+36%
same,"HDL3 Free/Total Cholesterol ratio, % change",[8]; 5 mg/kg,+12%
same,"VLDL Free/Total Cholesterol ratio, % change",[8]; 5 mg/kg,+14%
same,HDL2 Cholesterol,[8]; 10 mg/kg,0.87 ± 0.07 mmol/L
same,HDL2 Free/Total Cholesterol ratio,[8]; 10 mg/kg,0.221 ± 0.003
same,HDL3 Cholesterol,[8]; 10 mg/kg,0.60 ± 0.02 mmol/L
same,HDL3 Free/Total Cholesterol ratio,[8]; 10 mg/kg,0.285 ± 0.044
same,LDL Cholesterol,[8]; 10 mg/kg,2.86 ± 0.23 mmol/L
same,LDL Free/Total Cholesterol ratio,[8]; 10 mg/kg,0.303 ± 0.002
same,VLDL Cholesterol,[8]; 10 mg/kg,0.26 ± 0.03 mmol/L
same,VLDL Free/Total Cholesterol ratio,[8]; 10 mg/kg,0.519 ± 0.031
same,"HDL2 Free/Total Cholesterol ratio, % change",[8]; 10 mg/kg,+19%
same,"HDL3 Cholesterol, % change",[8]; 10 mg/kg,+13%
same,"HDL3 Free/Total Cholesterol ratio, % change",[8]; 10 mg/kg,+32%
same,"VLDL Free/Total Cholesterol ratio, % change",[8]; 10 mg/kg,+25%
same,HDL3-cholesterol,"[8]; human patients, 5 or 10 mg/kg",significant increase
same,free/total cholesterol ratio in isolated lipoprotein fractions,"[8]; human patients, 5 or 10 mg/kg",significantly elevated
